# Assay results published in patent publication US20230192617A1, “AZABICYCLIC(THIO)AMIDES AS FUNGICIDAL COMPOUNDS” (Bayer CropScience Aktiengesellschaft, priority 2020, published 2023).
# Key:
# [1] = Measurement of Log P values by HPLC on reversed phase columns (EEC directive 79/831 Annex V.A8); type: physicochemical; conditions: reversed phase HPLC column, method [a]: LC-UV, acidic range, 0.1% formic acid in water and acetonitrile as eluent
# Summary of the method: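 Reversed-phase HPLC with UV detection per EEC 79/831 Annex V.A8, linear 10–95% acetonitrile gradient. Aqueous eluent: 0.1% formic acid (acidic), 0.001 M ammonium acetate (neutral), or 0.1% phosphoric acid (acidic); multiple values in one method joined by "+".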
# Alternaria brassicae = assay: In vivo preventive test on Alternaria brassicae (leaf spot on radish or cabbage); conditions: 500 ppm of active ingredient, preventive spray on radish or cabbage, evaluated 3 to 4 days after inoculation, read-out: efficacy
# Summary of the method: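 Young radish or cabbage plants were sprayed with compound dissolved in DMSO/acetone/Tween 80 and diluted in water; controls received solvent only. Inoculation by spraying A. brassicae spore suspension 24 h later, then 3–4 days at 20 °C and 100% relative humidity.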
# Sphaerotheca fuliginea = assay: In vivo preventive test on Sphaerotheca fuliginea (powdery mildew on cucurbits); conditions: Podosphaera fuliginea, 192 h; 500 ppm of active ingredient; preventive spray on gherkin; evaluated 8 days after inoculation; read-out: efficacy
# Summary of the method: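 Young gherkin plants were sprayed with compound in DMSO/acetone/Tween 80 diluted in water. They were inoculated 24 h later with a spore suspension of Sphaerotheca fuliginea. Plants were then kept for 8 days at 20 °C and 70–80% relative humidity.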
SMILES,chromatographic logP [1],pest or weed control at 500 ppm (Alternaria brassicae),pest or weed control at 500 ppm (Sphaerotheca fuliginea)
Cc1ccc(C(F)(F)CNC(=O)c2c(Oc3cccc(Br)c3F)nnc3c2CCCC3)c(C)c1 [I-128],4.05,90 to 100%,90 to 100%
Cc1ccc([C@@H](F)CNC(=O)c2c(Oc3cccc(C(F)(F)F)c3)nnc3ccccc23)cc1C (racemic) [I-084],4.19,90 to 100%,80 to 89%
O=C(NCC(F)c1ccc(Cl)cc1Cl)c1c(Oc2cccc(C(F)(F)F)c2)nnc2c1CCCC2 (stereo not drawn) [I-118],4.05,90 to 100%,90 to 100%
O=C(NCC(F)(F)c1ccc(Br)cc1Cl)c1c(Oc2cccc(C(F)(F)F)c2)nnc2c1COCC2 [I-229],3.94,90 to 100%,90 to 100%
Cc1ccc(C(F)(F)CNC(=O)c2c(Oc3cccc(C(F)(F)F)c3)nnc3c2COCC3)c(Cl)c1 [I-124],3.7,90 to 100%,90 to 100%
Cc1ccc(CCNC(=O)c2c(Oc3cccc(C4CC4)c3F)nnc3ccccc23)c(C)c1 [I-070],4.42,90 to 100%,90 to 100%
Cc1ccc(C(F)(F)CNC(=O)c2c(Oc3cccc(C(F)F)c3)cnc3ccccc23)c(C)c1 [I-220],4.08,90 to 100%,90 to 100%
Cc1ccc(C(F)(F)CNC(=O)c2c(Oc3cccc(Br)c3)nnc3ccccc23)c(C)c1 [I-216],4.38,90 to 100%,90 to 100%
O=C(NCC(F)(F)c1ccc(Br)cc1Cl)c1c(Oc2cccc(C(F)(F)F)c2)nnc2c1CCC2 [I-212],4.17,90 to 100%,90 to 100%
"O=C(NCC(F)c1ccc(Cl)cc1Cl)c1c(Oc2cccc(C3CC3)c2)nnc2c1CCCC2 (stereo not drawn) [I-119, 3-(3-cyclopropylphenoxy)-N-[2-(2,4-dichlorophenyl)-2-fluoro-ethyl]-5,6,7,8-tetrahydrocinnoline-4-carboxamide]",4.11,90 to 100%,90 to 100%
Cc1ccc(C(F)(F)CNC(=O)c2c(Oc3cccc(C(F)(F)F)c3)nnc3c2CCCC3)c(Cl)c1 [I-239],4.05,90 to 100%,90 to 100%
Cc1ccc(C(F)(F)CNC(=O)c2c(Oc3cccc(Cl)c3)nnc3c2CCCC3)c(Cl)c1 [I-139],3.89,90 to 100%,90 to 100%
Cc1ccc(C(F)(F)CNC(=O)c2c(Oc3cccc(Cl)c3F)nnc3c2CCC3)c(C)c1 [I-133],3.89,90 to 100%,90 to 100%
Cc1cc(Br)ccc1C(F)(F)CNC(=O)c1c(Oc2cccc(Cl)c2)nnc2c1CCCC2 [I-151],4.17,90 to 100%,90 to 100%
Cc1cc(Br)ccc1C(F)(F)CNC(=O)c1c(Oc2cccc(C(F)(F)F)c2)nnc2c1COCC2 [I-127],3.94,90 to 100%,90 to 100%
O=C(NCC(F)c1ccc(Cl)cc1Cl)c1c(Oc2cccc(Cl)c2F)nnc2c1CCCC2 (stereo not drawn) [I-149],3.94,90 to 100%,90 to 100%
Cc1cc(Cl)ccc1C(F)(F)CNC(=O)c1c(Oc2cccc(Cl)c2)nnc2c1CCCC2 [I-146],4.11,90 to 100%,90 to 100%

SMILES,chromatographic logP [1],pest or weed control at 500 ppm (Alternaria brassicae),pest or weed control at 500 ppm (Sphaerotheca fuliginea)
O=C(NCC(F)c1ccc(Cl)cc1Cl)c1c(Oc2cccc(Cl)c2F)nnc2c1CCC2 (stereo not drawn) [I-188],3.89,90 to 100%,90 to 100%
Cc1cccc(Oc2cnc3ccccc3c2C(=O)NCC(F)(F)c2ccc(C)cc2C)c1 [I-222],4.3,90 to 100%,90 to 100%
Cc1cc(Cl)ccc1C(F)(F)CNC(=O)c1c(Oc2cccc(C(F)(F)F)c2)nnc2c1CCCC2 [I-145],4.28,90 to 100%,90 to 100%
O=C(NCC(F)(F)c1ccc(Br)cc1Cl)c1c(Oc2cccc(Cl)c2F)nnc2c1CCC2 [I-213],4.05,90 to 100%,90 to 100%
Cc1ccc(C(F)(F)CNC(=O)c2c(Oc3cccc(Cl)c3F)nnc3c2CCCC3)c(C)c1 [I-130],4,90 to 100%,90 to 100%
O=C(NCC(F)c1ccc(Cl)cc1Cl)c1c(Oc2cccc(C(F)(F)F)c2)nnc2c1CCC2 (stereo not drawn) [I-186],4,90 to 100%,90 to 100%
Cc1ccc(C(F)(F)CNC(=O)c2c(Oc3cccc(C(F)(F)F)c3)nnc3cc(C)ccc23)c(Cl)c1 [I-245],4.7,90 to 100%,90 to 100%
O=C(NC[C@H](F)c1ccc(Cl)cc1Cl)c1c(Oc2cccc(C3CC3)c2F)nnc2ccccc12 (racemic) [I-072],4.57,90 to 100%,90 to 100%
"Cc1ccc(C(F)(F)CNC(=O)c2c(Oc3cccc(Cl)c3F)nnc3c2CCCC3)c(Cl)c1 [I-140, 3-(3-chloro-2-fluoro-phenoxy)-N-[2-(2-chloro-4-methyl-phenyl)-2,2-difluoro-ethyl]-5,6,7,8-tetrahydrocinnoline-4-carboxamide]",3.94,90 to 100%,90 to 100%
Cc1cc(Br)ccc1C(F)(F)CNC(=O)c1c(Oc2cccc(C(F)F)c2)nnc2c1CCCC2 [I-150],3.84,90 to 100%,90 to 100%
Cc1ccc(C(F)(F)CNC(=O)c2c(Oc3cccc(C(F)F)c3)nnc3c2CCCC3)c(C)c1 [I-129],3.68,90 to 100%,90 to 100%
Cc1ccc2c(C(=O)NCC(F)(F)c3ccc(C)c(C)c3)c(Oc3cccc(C(F)(F)F)c3)nnc2c1 [I-246],4.66,90 to 100%,90 to 100%
Cc1ccc(C(F)(F)CNC(=O)c2c(Oc3cccc(Cl)c3)nnc3c2CCCC3)c(C)c1 [I-121],3.89,90 to 100%,90 to 100%
Cc1ccc(C(F)(F)CNC(=O)c2c(Oc3cccc(C4CC4)c3F)nnc3c2CCCC3)c(Cl)c1 [I-141],4.17,90 to 100%,90 to 100%
Cc1ccc(C(F)(F)CNC(=O)c2c(Oc3cccc(C(F)(F)F)c3)nnc3c2CCC3)c(C)c1 [I-132],4,90 to 100%,90 to 100%
Cc1ccc(C(F)CNC(=O)c2c(Oc3cccc(C(F)(F)F)c3)nnc3c2COCC3)c(C)c1 (stereo not drawn) [I-123],3.61,90 to 100%,90 to 100%
Cc1ccc(C(F)(F)CNC(=O)c2c(Oc3cccc(Br)c3F)nnc3ccccc23)c(C)c1 [I-227],4.4,90 to 100%,90 to 100%
